Assay results from patent US5444042A, “Method of treatment of neurodegeneration with calpain inhibitors” (Cortex Pharmaceuticals, priority 1994, dated 1995).
Values belong to the compound of their own block, whether it stands above or below them. Where a SMILES comes first, the peptide text is derived from it. The star is where a group is joined. Cbz = O=C(OCc1ccccc1)*; CH2Cl = ClC*

How the values were obtained:
Cathepsin B = Cathepsin B (Bos taurus, UniProt P07688); assay: Cathepsin B inhibition, Z-Arg-Arg-AFC (Table PKC1); type: biochemical; conditions: pH 6.0 phosphate buffer, substrate Z-Arg-Arg-AFC; read-out: Ki CB (Cathepsin B)
Description: (§1) Various concentrations of inhibitors in dimethylsulfoxide (DMSO) were added to the assay mixture, which contained buffer and substrate. The reaction was started by the addition of the enzyme and the hydrolysis rates were followed spectrophotometrically or fluorimetrically. 88 mM KH2 PO4, 12 mM Na2 HPO4, 1.33 mM EDTA, 2.7 mM cysteine, pH 6.0 was used as a buffer for cathepsin B; and 20 mM Hepes, 10 mM CaCl2, 10 mM β-mercaptoethanol, pH 7.2 buffer was utilized for calpain I and calpain II.
(§2) All peptide thioester hydrolysis rates were measured with assay mixtures containing 4,4'-dithiodipyridine [e324=19800 M-1 cm-1; Grasetti & Murray, Arch. Biochem. Biophys. 119, pp 41-49 (1967)]. Papain was assayed with Bz-Arg-AMC or Bz-Arg-NA [Kanaoka et al., Chem. Pharm. Bull. 25, 3126-3128 (1977)], and the AMC (7-amino-4-methylcoumarin) release was followed fluorimetrically (excitation at 380 nm, and emission at 460 nm). Cathepsin B was assayed with Z-Arg-Arg-AFC [Barrett and Kirschke, Methods Enzymol. 80, 535-561 (1981)], and the AFC (7-amino-4-trifluoromethylcoumarin) release was followed fluorimetrically (excitation at 400 nm, and emission at 505 nm). Calpain I from human erythrocytes and calpain II from rabbit were assayed using Suc-Leu-Tyr-AMC [Sasaki et al., J. Biol. Chem. 259, 12489-12494 (1984), hereby incorporated by reference], and the AMC (7-amino-4-methylcoumarin) release was followed fluorimetrically (excitation at 380 nm, and emission at 460 nm). Enzymatic hydrolysis rates were measured at various substrate and inhibitor concentrations, and Ki values were determined by Dixon plot.

[1] = target: T1, Calpain I from human erythrocytes (Homo sapiens, UniProt P07384); assay: Calpain I inhibition, Suc-Leu-Tyr-AMC (Table PKC1); type: biochemical; conditions: 20 mM Hepes, 10 mM CaCl2, 10 mM β-mercaptoethanol, pH 7.2; read-out: Ki CI (Calpain I)
T1 construct: Calpain I from human erythrocytes and calpain II from rabbit were assayed using Suc-Leu-Tyr-AMC; from tissue; host or cells: human erythrocytes
T1 sequence (P07384 1-714): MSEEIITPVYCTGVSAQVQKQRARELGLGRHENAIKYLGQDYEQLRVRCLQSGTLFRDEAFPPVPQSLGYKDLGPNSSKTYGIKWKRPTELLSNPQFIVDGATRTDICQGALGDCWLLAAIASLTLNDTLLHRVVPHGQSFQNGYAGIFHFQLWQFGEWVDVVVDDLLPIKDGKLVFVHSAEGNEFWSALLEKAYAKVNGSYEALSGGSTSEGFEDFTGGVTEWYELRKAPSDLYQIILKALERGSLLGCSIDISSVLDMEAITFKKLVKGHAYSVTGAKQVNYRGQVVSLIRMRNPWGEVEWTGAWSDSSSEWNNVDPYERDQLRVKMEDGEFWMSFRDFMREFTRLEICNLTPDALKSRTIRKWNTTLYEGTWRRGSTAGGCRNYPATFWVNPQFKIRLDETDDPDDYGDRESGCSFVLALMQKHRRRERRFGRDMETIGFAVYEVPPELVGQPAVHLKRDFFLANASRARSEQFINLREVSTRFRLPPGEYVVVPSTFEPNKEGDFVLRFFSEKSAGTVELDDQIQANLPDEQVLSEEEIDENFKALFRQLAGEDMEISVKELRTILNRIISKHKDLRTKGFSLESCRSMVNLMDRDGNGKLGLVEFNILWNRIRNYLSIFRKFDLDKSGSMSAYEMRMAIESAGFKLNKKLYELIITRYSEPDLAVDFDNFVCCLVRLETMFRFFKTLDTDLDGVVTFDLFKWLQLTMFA
T1 sequence (P04632 1-268 partner): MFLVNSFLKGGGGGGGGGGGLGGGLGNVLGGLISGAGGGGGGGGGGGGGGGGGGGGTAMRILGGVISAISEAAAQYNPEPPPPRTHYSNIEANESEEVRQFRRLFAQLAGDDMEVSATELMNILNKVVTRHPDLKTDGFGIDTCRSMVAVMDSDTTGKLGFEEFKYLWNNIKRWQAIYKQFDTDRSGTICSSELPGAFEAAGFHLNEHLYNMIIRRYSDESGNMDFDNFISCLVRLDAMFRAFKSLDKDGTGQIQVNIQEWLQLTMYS
Description: as §1, with “Our discovery of Peptide Keto-Compounds effective as Calpain Inhibitors was made through assay of the Peptide Keto-Compounds as reversible inhibitors. Various” for “Various”
as §2

Papain = target: T2, Papain (Carica papaya, UniProt P00784); assay: Papain inhibition, Ki by Dixon plot (Table PKC1); type: biochemical; conditions: 0.05M Tris-HCl pH 7.5, 2 mM EDTA, 5 mM cysteine, 1% DMSO, 25° C., substrate Nα-Benzoyl-Arg-AMC; read-out: Ki P (Papain)
T2 sequence (P00784 134-345): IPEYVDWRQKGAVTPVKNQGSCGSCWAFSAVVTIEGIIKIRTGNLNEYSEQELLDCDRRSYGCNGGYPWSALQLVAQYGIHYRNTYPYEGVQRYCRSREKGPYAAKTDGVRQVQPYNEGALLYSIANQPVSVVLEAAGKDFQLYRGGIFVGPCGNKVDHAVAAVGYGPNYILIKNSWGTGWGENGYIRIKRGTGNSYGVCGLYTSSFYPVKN
Description: as §1, §2
The inhibition constants for papain shown in Table PKC1 were measured in 0.05M Tris-HCl, pH 7.5 buffer, containing 2 mM EDTA, 5 mM cysteine (freshly prepared), 1% DMSO, at 25° C., using N^α -Benzoyl-Arg-AMC as a substrate, except that those values of inhibition constants for papain marked with an "e" in Table PKC1 were measured in 50 mM Tris-HCl, pH 7.5 buffer, containing 20 mM EDTA, 5 mM cysteine, 9% DMSO, at 25° C., using N^α -Benzoyl-Arg-NA as a substrate.

Calpain II [2] = target: T3, Calpain II (Homo sapiens, UniProt P17655); assay: Calpain II 14C-methylated casein proteolysis (Table 1A); type: biochemical
T3 construct: from tissue; purified by a cited method
T3 sequence (P17655 1-700): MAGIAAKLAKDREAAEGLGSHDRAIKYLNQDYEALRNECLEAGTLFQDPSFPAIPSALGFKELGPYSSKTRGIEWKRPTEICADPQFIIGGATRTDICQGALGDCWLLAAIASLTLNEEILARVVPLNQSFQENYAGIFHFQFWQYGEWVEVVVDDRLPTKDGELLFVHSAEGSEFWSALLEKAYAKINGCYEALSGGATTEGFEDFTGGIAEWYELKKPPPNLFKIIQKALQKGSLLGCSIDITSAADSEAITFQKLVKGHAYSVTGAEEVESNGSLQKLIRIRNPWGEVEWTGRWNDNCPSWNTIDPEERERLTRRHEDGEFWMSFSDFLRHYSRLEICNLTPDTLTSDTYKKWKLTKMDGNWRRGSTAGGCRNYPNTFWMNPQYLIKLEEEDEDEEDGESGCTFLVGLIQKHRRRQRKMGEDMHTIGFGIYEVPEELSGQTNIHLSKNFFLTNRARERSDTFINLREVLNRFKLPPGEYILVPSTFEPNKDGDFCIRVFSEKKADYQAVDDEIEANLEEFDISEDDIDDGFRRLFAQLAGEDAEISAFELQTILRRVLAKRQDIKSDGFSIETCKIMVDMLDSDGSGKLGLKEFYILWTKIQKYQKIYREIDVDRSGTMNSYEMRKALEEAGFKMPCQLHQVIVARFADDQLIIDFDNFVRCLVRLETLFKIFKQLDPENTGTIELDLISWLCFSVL
T3 sequence (P04632 1-268 partner): T1 sequence (P04632 1-268 partner)
Description: (§3) The isocoumarins are irreversible inhibitors of Calpain. We obtained IC50 values for a variety of these Calpain Inhibitors as a kinetic analysis of these compounds.
(§4) Calpains I and II were purified by the method of (Yoshimura, et al. 1983). (Kitahara 1984) provides an alternative purification scheme. Calpain II may alternatively be purchased from Sigma Chemical Co. as "Calcium Activated Neutral Protease." In this assay, purified Calpain was incubated with ^14 C-methylated casein in the presence of various Heterocyclic Compounds and the amount of acid-soluble radioactivity released by the action of Calpain was measured.

Calpain I = target: T4, Calpain I (Homo sapiens, UniProt P07384); assay: Calpain I 14C-methylated casein proteolysis (Table 1A); type: biochemical
T4 sequence (P07384 1-714): T1 sequence (P07384 1-714)
T4 sequence (P04632 1-268 partner): T1 sequence (P04632 1-268 partner)
Description: as §3, §4

[3] = tested on: Calpain in crude brain extracts; assay: Ca2+-stimulated spectrin proteolysis in crude brain extracts (Example 2); type: biochemical; conditions: 100 μM
Summary of the method: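 Brain tissue was homogenized in 10 mM Tris pH 7.4, 0.32 M sucrose, 1 mM EGTA and 1 mM DTT, and nuclei and debris were removed. Calpain activity was scored as Ca^2+-stimulated proteolysis of endogenous spectrin.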

Calpain within platelets = assay: Platelet membrane permeation assay, spectrin proteolysis (Examples 4A, 4B); type: cell-based, rat; conditions: 100 μM, A23187 1 μM
Summary of the method: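 Rat (Sprague-Dawley) platelets at 10^7 cells/ml in HEPES buffer pH 7.4, preincubated 5 min with inhibitor, then 5 min with 1 μM A23187 to activate calpain. Spectrin proteolysis assessed by SDS-PAGE and anti-spectrin immunoblot, quantified by densitometry.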

N18-RE-105 cells = assay: Glutamate-induced cell death, MTT conversion (Example 5); type: cell-based; conditions: 5 mM glutamate, inhibitor 3 μg/ml, 19 hours
Description: Stock cultures of N18-RE-105 cells were maintained in Dulbecco's modified Eagle's medium (DMEM) containing 10% fetal bovine serum (FBS) and supplemented with hypoxanthine, aminopterin and thymidine (HAT). Subconfluent cultures were split and plated into 96-well plates. Twenty-four hours after plating the cells were exposed to fresh media containing glutamate and various concentrations of Calpain inhibitors. Control cells were not treated with glutamate. Conversion of MTT was measured 19 hours later as described. Nineteen hours after the onset of exposure, cell viability was quantitated by measuring the extent to which the cells convert 3(4,5-dimethylthiazol-2-yl)-2-5-diphenyltetrazolium bromide (MTT) to a blue formazan product, which occurs in the mitochondria of living but not dead cells (Pauwels et al., 1988). A higher absorbance is indicative of greater cell viability.

Calpain II [4] = assay: Kapp/[I] progress curve method, Calpain II (Table 1C); type: biochemical; parameters: unit not given here; conditions: Rabbit Calpain II, Suc-leu-tyr-amidomethylcoumarin
Description: The Halo-Ketone Peptides, like the substituted isocoumarins, are irreversible inhibitors of Calpain. We determined the Kapp /[I] values for various members of this class of compounds against Calpains I and II. For comparison, we also determined these values against the additional thiol proteases Papain and Cathepsin B for at least one Halo-Ketone Peptide.
We assayed Calpain I and II using Suc-leu-tyr-amidomethylcoumarin. Papain was assayed using benzoyl-arg-4-nitroanilide, and Cathepsin B (bovine) was assayed using CBZ-lys-4-nitrophenyl ester. We followed the progress curve method of Tian and Tsou, Biochemistry, 21:1028-1032 (1982), the disclosure of which is hereby incorporated by reference, to derive kinetic data. Briefly, this method makes use of the equation: [formula] where [P.infin. ] represents the concentration of product formed at a time approaching infinity, A is the Kapp in the presence of substrate (S), K is the Michaelis constant and [Y] is the concentration of the inhibitor. Since [S] and [Y] are known and V and K can be determined, Kapp can be readily determined.

Compound: CCOC(=O)C(=O)C(C)NC(=O)C(C)NC(=O)C(C)NC(=O)OCc1ccccc1 (racemic) [Z-Ala-Ala-DL-Ala-COOEt, Z-Ala-Ala-DL-Ala-CO2 Et]
Ki (Cathepsin B): 2.2 µM
Ki [1]: 200 µM
Ki (Papain): 1.5 µM

Compound: Cc1ccc(S(=O)(=O)N[C@@H](Cc2ccccc2)C(=O)CCl)cc1 [TPCK, Tosyl-PheCH2 Cl, reference compound]
blue formazan product relative to control without glutamate (N18-RE-105 cells): ≥ 100%

Compound: CC(C)CC(NC(=O)CNC(=O)OCc1ccccc1)C(=O)NC(C)C(=O)CCl (stereo not drawn) [Z-Gly-Leu-Ala-CH2 Cl] (Cbz-Gly-Leu-Ala-CH2Cl; configuration not given here)
inhibition of spectrin proteolysis in crude brain extracts [3]: significant inhibition
Kapp/[I] CII (Calpain II [4]): 210000

Continued, in another order:

IC50 (Calpain II [2]): > 200 µM
IC50 Calpain I (Calpain I): no inhibition
Compound: CC(C)(C)OC(=O)N[C@@H](Cc1ccccc1)C(=O)Nc1ccc2c(Cl)c(OCCCSC(=N)N)oc(=O)c2c1 [BOC-L-Phe-NH-CiTPrOIC, 7-(N-t-butyloxycarbonyl-L-phenylalanylamino)-4-chloro-3-(3-isothiureidopropoxy)isocoumarin]

IC50 (Calpain II [2]): 80 µM
IC50 (Calpain I): 700 µM
Compound: CC(=O)Nc1ccc2c(Cl)c(OCCCSC(=N)N)oc(=O)c2c1 [CH3 CONH-CiTPrOIC, 7-(acetylamino)-4-chloro-3-(3-isothiureidopropoxy)isocoumarin]
inhibition of spectrin proteolysis in crude brain extracts [3]: significant inhibition
inhibition of Calpain within platelets (Calpain within platelets): significant inhibition

IC50 (Calpain II [2]): 30 µM
Compound: N=C(N)SCCCOc1oc(=O)c2cc(NC(=O)[C@@H](N)Cc3ccccc3)ccc2c1Cl [L-Phe-NH-CiTPrOIC, 7-(L-phenylalanylamino)-4-chloro-3-(3-isothiureidopropoxy)isocoumarin]
inhibition of spectrin proteolysis in crude brain extracts [3]: significant inhibition
inhibition of Calpain within platelets (Calpain within platelets): significant inhibition

IC50 (Calpain II [2]): 30 µM
IC50 (Calpain I): 80 µM
Compound: N=C(N)SCCCOc1oc(=O)c2cc(NC(=O)NCc3ccccc3)ccc2c1Cl [PhCH2 NHCONH-CiTPrOIC, 7-(benzylcarbamoylamino)-4-chloro-3-(3-isothiureidopropoxy)isocoumarin]
inhibition of spectrin proteolysis in crude brain extracts [3]: significant inhibition
inhibition of Calpain within platelets (Calpain within platelets): significant inhibition
